Earlier results in US20160051475A1, “Sustained Release Composition Comprising an Amine as Active Agent and a Salt of a Cyclic Organic Acid” (Upsher-Smith Laboratories, Inc., priority 2010, published 2016).

SMILES: CC(=O)Nc1ccc(O)cc1 [acetaminophen]
- pKa: 9.7
